Values joined by “and” are separate entries in the source; they are usually repeats but may differ in a detail not shown here. Equal values may be shown once.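 All cell lines were grown in 96-well plates and treated with compound for 48 hours. At the GI50, growth is halved. TGI marks complete inhibition of growth.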

Nine compounds from PubChem BioAssay (NCI) can be followed below.

Holding throughout (test): NCI tumour cell line growth inhibition, 48 h
Test [1] concerns HCT-15 colon.
Test [2] has as its system UACC-62 melanoma.
The subject of test [3] is UO-31 renal.
Test [4] deals with NCI-H226 lung.
Test [5] relates to SK-MEL-28 melanoma.
The test system of test [6] is HOP-92 NSCLC.
Test [7] has as its system SF-539 CNS.
Test [8] has as its system HCT-116 colon.
Test [9] concerns A498 renal.
Test [10] relates to SK-MEL-2 melanoma.

Take `O=C(NCCc1ccccc1)C(c1csc2ccccc12)N(C(=O)CCl)c1ccc(-c2cnco2)cc1` (centres undefined): the GI50 in test [1] was 0.596 µM; in test [2] it was 1.3 µM; in [3] it was 0.0173 µM; in [4], 1.07 µM; in test [5], 1.69 µM; in test [6] it was 0.174 µM. Further, the GI50 was 0.126 µM in [7], 0.889 µM in test [8], 0.62 µM in test [9] and 1.64 µM in [10]. For the same compound, the TGI in [1] came out at 1.84 µM; in test [2], 2.85 µM; in [3], 0.0354 µM; in test [4], 3.43 µM; in [5], 3.12 µM; in test [6], 0.443 µM. Besides, the TGI in test [7] amounted to 0.257 µM; in [8] it was 2.37 µM; in test [9] it was 1.48 µM; in [10] it was 3.12 µM.

On to `CN1CCN(c2nc(C3=C(c4c[nH]c5ccccc45)C(=O)NC3=O)c3ccccc3n2)CC1`, for which the GI50 in test [1] was 12.9 µM and 19.5 µM; in test [2] it was 14.4 µM and 16.2 µM; in test [3] it was 8.2 µM and 11.7 µM; in test [4], 12.4 µM and 28.3 µM; in test [5], 11.2 µM and 17.7 µM; in test [6], 30.5 µM and 4.23 µM. The GI50 in test [7] is 10.5 µM and 16.8 µM; in test [8] it was 10.3 µM and 9.78 µM; in test [9], 12.9 µM and 15.4 µM; in test [10] it was 12.8 µM and 20.2 µM. The TGI in test [1] is 60.2 µM and > 100 µM; in test [2], 35.2 µM and 30.7 µM; in test [3], 65 µM and 30.1 µM; in test [4], 37.9 µM and 75.3 µM; in [5], 20.8 µM and 32.8 µM; in [6], 65 µM and 17.4 µM. Moreover, the TGI in test [7] was 19.7 µM and 32.9 µM; in test [8], 31.9 µM and 37.9 µM; in test [9] it was 24.3 µM and 29.7 µM; in test [10], 25.8 µM and 38.8 µM.

Turning to `O=C(O)C(=O)/C=C\c1ccc(Cl)cc1`, the TGI in test [1], in test [2], in test [3], in test [4], in [5] and in test [6] was > 100 µM each time. In addition, the TGI in test [7], in test [8], in test [9] and in [10] was > 100 µM throughout.

As to `NNC(=S)N/N=C(\c1nc2ccc(Cl)cc2[nH]c1=O)C(O)c1ccc(Cl)cc1Cl` (centres undefined), the TGI in test [1], in test [2], in test [3], in test [4], in [5] and in test [6] was > 100 µM each time. In addition, the TGI in test [7], in [8], in [9] and in [10] was > 100 µM throughout.

For the compound `NS(=O)(=O)OC[C@H]1O[C@@H](n2cnc3c(N[C@H]4CCc5ccccc54)ncnc32)[C@H](O)[C@@H]1O`, the GI50 in test [1] is 0.857 µM; in [2], 0.0451 µM; in test [3], 1.41 µM; in test [4], 0.0285 µM; in test [5], 0.047 µM; in test [6], 0.475 µM. The GI50 in test [7] was 0.0351 µM; in [8], 0.0213 µM; in test [9], 0.0288 µM; in [10] it was 0.098 µM. In addition, the TGI worked out at 7.14 µM in test [1]; 0.374 µM in [2]; 2.88 µM in [3]; 0.0863 µM in [4]; 0.276 µM in test [5]; 0.799 µM in [6]. The TGI in test [7] came to 0.117 µM; in test [8], 0.114 µM; in test [9], 0.124 µM; in test [10], 0.434 µM.

As for `CCCCCc1c(C)[nH]c(/C=C2\N=C(c3ccc[nH]3)C=C2Oc2ccc(OC)cc2)c1C`, the GI50 in test [1] was 0.113 µM; in [2], 0.112 µM and 0.0271 µM; in [3], 0.151 µM and 0.0712 µM; in test [4] it was 0.118 µM and 0.139 µM; in test [5] it was 0.231 µM and 0.0512 µM; in [6], 0.145 µM and 0.0153 µM. Further, the GI50 in [7] was 0.156 µM and 0.0431 µM; in test [8], 0.0373 µM and 0.0269 µM; in [9], 0.194 µM and 0.0304 µM; in test [10], 0.116 µM and 0.0299 µM. The TGI in [1] was 0.759 µM; in test [2], 0.272 µM and 0.0725 µM; in [3], 0.313 µM and 0.232 µM; in [5], 0.904 µM and 0.281 µM; in test [6], 0.575 µM and 0.101 µM; in test [7] it was 0.551 µM and 0.212 µM. Besides, the TGI is 1.13 µM and 0.127 µM in test [8]; 1.19 µM and 0.234 µM in test [9]; 0.302 µM and 0.0836 µM in [10].

In the case of `CCOC(=O)C(=C=Cc1cccs1)C(=O)c1ccccc1`, the TGI in test [1] is 30.1 µM; in test [2], 30.3 µM; in test [3], 27.3 µM; in [4], 32.7 µM; in [5], 28 µM; in test [6], 19.1 µM. In addition, the TGI was determined as 30.6 µM in [7], 27.7 µM in [8], 35.5 µM in test [9] and 33.4 µM in [10].

On to `COc1ccc2c(c1)Cc1cc(N=[N+]([O-])c3ccc4c(c3)Cc3cc(OC)ccc3-4)ccc1-2`, for which the TGI in test [1] is > 100 µM; in [2], 85.4 µM; in test [3], > 100 µM; in test [4], > 100 µM; in test [5], > 100 µM; in test [6], > 100 µM. For the same compound, the TGI in test [7] was 28.5 µM; in [8], > 100 µM; in test [9], 95 µM; in [10], > 100 µM.

As for `CN1CCN(c2nc(NCCNc3ccnc4cc(Cl)ccc34)c3ccccc3n2)CC1`, the GI50 in test [1] is 3.02 µM; in test [2] it was 1.82 µM; in [3], 1.55 µM; in [4], 10.6 µM; in test [5], 1.83 µM; in test [6], 1.13 µM. The GI50 in [7] is 1.77 µM; in test [8], 0.448 µM; in test [9] it was 12.3 µM; in test [10], 1.98 µM. Moreover, the TGI is 10.8 µM in test [1]; 3.39 µM in [2]; 3.53 µM in test [3]; 28.7 µM in test [4]; 3.39 µM in test [5]; 2.6 µM in test [6]. The TGI in test [7] is 3.34 µM; in [8] it was 7.62 µM; in test [9], 25.5 µM; in test [10] it was 4.19 µM.
